Source: patent publication US20050239143A1, “Immunocapture-based measurements of mammalian pyruvate dehydrogenase complex” (priority 2002, published 2005)
Entries after “also recorded” stand apart in the source; their conditions may differ.

Columns and labels:
[1] = system: T1, immunocaptured human heart PDH complex; assay: Immunocapture microplate PDH activity assay (NADH production) with known inhibitors and activators; format: biochemical; settings: agent added to wells with already immunocaptured PDH; unmodified human heart PDH control = 100%
T1 construct: tissue Analytic Biological Services, Inc; host or cells: human heart mitochondria, lauryl maltoside solubilized, captured on anti-E2 mAb plates
Method: FIG. 3 is a graph summarizing the results of tests for specific inhibition and activation of immunocaptured PDH activity. Known inhibitors and activators as shown were added directly to wells of microtiter plates and incubated with already immunocaptured PDH. Activity of the complex was monitored by measuring production of NADH per min/mg mitochondrial protein. Unmodified activity of human heart PDH (control) was set to 100%.
96-well ELISA plates (Falcon Probind) were coated with Goat-anti-mouse IgG Fc specific antibody (0.5 μg/well) in PBS buffer overnight at 4° C. After 3 washings, wells were coated with monoclonal anti-PDH-E2 subunit at 0.5 μg/well and incubated for 1-2 hours at room temperature. The wells were washed 3-4 times and covered with a 0.5% bovine serum albumin solution for 1 hour to minimize non-specific protein binding to the wells. After blocking, wells were washed 5 times and 100 μl of solubilized mitochondria applied and incubated in the wells at room temperature for 1 hour. After incubation, the supernatant was collected and reapplied to a second antibody-covered plate to test for residual activity.
100 μl/well of the reaction mixture (50 mM Tris, pH 7.5; 2 mM β-NAD+, 225 μM TPP, 2 mM pyruvate, 150 μM Coenzyme A, 2.6 mM cysteine, 1 mM MgCl2) was applied and NADH production was monitored either spectrophotometrically at […] or by measuring fluorescence in the presence of 15 μM resazurin and 0.5 U/ml diaphorase using an excitation wavelength of 530 nm and an emission wavelength of 590 nm for up to […]. […] Activity was calculated as nMol NADH/min/mg of mitochondrial protein.
Monoclonal anti-E2 antibodies were attached to 96-well microplates to which had been prebound goat anti-mouse IgG Fc mAbs, as described in Materials and Methods. […] Unbound protein was removed by extensive washings and NADH production then measured by the increase of absorbance at 340 nm or by coupled fluorescence assay, in the presence of NAD+, pyruvate, CoA, TPP, MgCl2, and cysteine as a reducing agent in 50 mM Tris-HCl buffer pH 7.8. […]

[2] = system: E1α subunit of immunoprecipitated PDH complex; assay: 2D-gel isoelectric focusing and Western blot with E1α-specific mAb to follow phosphorylation of immunoprecipitated PDH; settings: pH gradient 10 to 3; compared with untreated enzyme

Structure (SMILES) | Inhibition of immunocaptured PDH activity [1] | Level of phosphorylation of E1α (isoelectric point shift) [2] | Increase of PDH activity [1] [%]
Nc1ncnc2c1ncn2[C@@H]1O[C@H](COP(=O)(O)OP(=O)(O)OP(=O)(O)O)[C@@H](O)[C@H]1O [ATP] | about 70% | greatly increased the level of phosphorylation; also recorded: increases the phosphorylation patterns of E1α | –
O=C(O)C(Cl)Cl [Dichloroacetate] | – | – | 34
O=[As]O [sodium arsenite] | > 98% | – | –
